Read-outs that look alike come from different tables or passages of the source. Marks after values point to notes of the source that are not given here.
Columns and labels:
[1] = test system: Male broiler (Ross 308) chicks; format: in vivo; details: main effect mean (factor: Yes)
Description: The proteolytic enzyme (Ronozyme®ProAct) and Vitamin C (Staye®50) were provided in powder form and a ready to use formulation by DSM Nutritional Products.
Male broiler (Ross 308) chicks were obtained from a local hatchery as day-olds and reared in cage in an environmentally controlled room. On d 0, chicks were individually weighed and 640 birds were allocated on weight basis to 80 cages (8 chicks per cage). The 8 dietary treatments (Table 1) were then randomly assigned to 10 replicate cages each. Experimental diets were fed from 0-21 and 22-35 days.
During week 1, a broiler coccidiosis vaccine (Immucox, Pacificvet, Christchurch, New Zealand) was given via drinking water to all chicks.
The birds received 20-hours of fluorescent illumination and allowed free access to the diets and water. Birds were checked at least three times daily (9.00 am, […]) and any unusual aspect of bird behaviour or condition was recorded. Sick or injured animals were weighed and removed from the study.
The experimental design is a 2×2×2 factorial arrangement of treatments, with two basal control diets (positive control and negative control), two levels of enzyme (with and without) and two levels of vitamin C (with and without).
The two control diets, positive and negative, based on wheat and soybean meal, were mixed for each phase of the study (0-21 and 22-35 d) (Table 2). The PC and NC diets were then used to develop 8 dietary treatments by adding the ProAct enzyme and Vitamin C mixtures. All the diets were fed in pellet form.
Growth performance: Feed and water were available ad libitum during the 35 days experimental period. Body weights and feed intake were recorded on days 7, 14, 21, 28 and 35. Mortality was recorded daily. Feed per gain values were corrected for the body weight of any bird that died or culled during the course of the experiment.
The data were subjected to ANOVA using the General Linear Models procedure of SAS (2004). Significant differences were considered at P<0.05. When a significant F-test was detected, means were separated using the least significant difference test.

Ross 308 male broilers = assay: Growth performance of broiler chickens fed two proteolytic enzymes supplemented with vitamin C (Example 3); format: in vivo; details: for FCR / FI / WG: NC diet, Vit. C level 300 mg/kg, alone or with the named enzyme (CIBENZA 350 mg/kg, ProAct 200 mg/kg feed)
Description: A total of 490 day old Ross 308 male broilers were randomly assigned to 7 treatments (6 experimental groups plus one control group) with 10 replicates of 7 birds per replicate. Six experimental groups with two levels of vitamin C (0 and 300 mg/kg feed) and three enzyme treatments: • no feed enzymes, • Novus CIBENZA (Bacillus licheniformis PWD-1 at levels of 350 mg/kg feed), • DSM RONOZYME® ProAct (at levels of 200 mg/kg feed), in a 2×3 factorial design plus one positive control. The diets of the positive control (PC) were based on wheat and soybean meal and were adequate in all nutrients. The other 6 experimental groups were fed with a negative control (NC) diet based also on wheat and soybean meal but containing less protein (97.5%) and digestible amino acids (95.5%) than the PC. The birds were fed starter (1-14 d) diets during the trial.
The birds were fed the starter (1-14 d) diets ad libitum and had free access to water throughout the trial. RONOZYME® NP (CT) and RONOZYME® WX at levels of 200 and 100 mg/kg feed respectively were included in each diet. […] After mixing, the feed was pelleted at 75-80° C.
All birds were reared in cages in an environmentally controlled room and received 23L:1D of lighting regime during the first week and 20L:4D afterward until the end of the trial. The temperature of the room was maintained at 32±1° C. on the day of arrival and adapted according to the age specific requirements of the chickens.
At d 4, a broiler coccidiosis vaccine (Coccivac B®, MSD, Canada) was given as a mild challenge to all birds via oral administration. Body weights and feed intake were recorded at weekly intervals. Mortality was recorded daily. The weight of the dead animals was used to adjust the feed conversion ratio (FCR) which were calculated by dividing total feed intake by weight gain of live plus weight of dead birds per cage, respectively.

[2] = 1-7 d, main effect mean of the 2x3 factorial (NC diet)
[3] = 1-14 d, main effect mean of the 2x3 factorial (NC diet)

O=C1O[C@H]([C@@H](O)CO)C(O)=C1O [Vitamin C, L-ascorbic acid]
Feed intake, main effect ([1]; 1-21 d post-hatching): 1437 g/bird
Feed/gain, main effect ([1]; 1-21 d post-hatching): 1.43 g/g
Weight gain, main effect ([1]; 1-21 d post-hatching): 1006 g/bird
Feed intake, main effect ([1]; 1-35 d post-hatching): 3809 g/bird
Feed/gain, main effect ([1]; 1-35 d post-hatching): 1.64 g/g
Weight gain, main effect ([1]; 1-35 d post-hatching): 2349 g/bird
FCR (Ross 308 male broilers; 1-7 d): 1.141
FI (Ross 308 male broilers; 1-7 d): 157 g/bird
WG (Ross 308 male broilers; 1-7 d): 137 g/bird
FCR, main effect (Ross 308 male broilers; [2]): 1.156
FI, main effect (Ross 308 male broilers; [2]): 161 g/bird
WG, main effect (Ross 308 male broilers; [2]): 140 g/bird
FCR, main effect (Ross 308 male broilers; 1-7 d, main effect mean of the 2x3 factorial (NC diet), listed as Vit. C): 1.156^A
FCR (Ross 308 male broilers; 1-14 d): 1.354^a
FI (Ross 308 male broilers; 1-14 d): 602 g/bird
WG (Ross 308 male broilers; 1-14 d): 445 g/bird
FCR, main effect (Ross 308 male broilers; [3]): 1.440
FI, main effect (Ross 308 male broilers; [3]): 635 g/bird
WG, main effect (Ross 308 male broilers; [3]): 443 g/bird
FCR, main effect (Ross 308 male broilers; 1-14 d, main effect mean of the 2x3 factorial (NC diet), listed as Vit. C): 1.440^A
FCR, main effect (Ross 308 male broilers; d 1 to d 21, birds fed vitamin C vs. 1.516 without, P=0.080): 1.478
